Laboratory results published in patent US20040220220A1, “Method for treating inflammatory bowel disease” (priority 2001, published 2004).
Values joined by “and” are separate entries in the source; they are usually repeats but may differ in a detail not shown here. Equal values may be shown once.

Experiments:
[1] = conventional oral doses 4-6 mg/kg/day, after 3 months therapy, two clinical trials; cited from earlier work
[2] = tested on: neutrophil, macrophages, T cell; settings: at concentrations in the range obtained by targeted delivery; cited from earlier work
[3] = tested on: Primary Human Epithelial Cells (tonsillar); experiment: IP-10/RANTES production in primary epithelial cells exposed to HRV-16; type: cell-based
Description: Primary cultures of harvested human tonsillar epithelial cells were preincubated for 24 hr with 50 microM HCQ. The cells were then exposed to human rhinovirus type 16 (HRV-16) which was left on the cells in the presence and absence of HCQ. Medium was recovered at two different time post infection (24 hr viral incubation and 48 hr viral incubation) and assayed for IP-10 and RANTES. The data is depicted in Table 1 below and in FIG. 5.

BEAS-2B epithelial cells = experiment: IP-10/RANTES production in BEAS-2B cells exposed to HRV-16; type: cell-based; settings: 48 hr
Description: Cells of the BEAS-2B epithelial cell line were preincubated for either 6 hr or 24 hr with varying concentrations of HCQ. Cells were then exposed to human rhinovirus type 16 (HRV-16) which was left on the cells in the presence and absence of HCQ at the concentrations indicated for 48 hr. The data is depicted in Table 2 and FIG. 13.

leukocytes = settings: ex vivo and in vitro experiments; cited from earlier work
[4] = asthma, oral HCQ; cited from earlier work
[5] = tested on: human tracheal epithelial cells; experiment: Pro-inflammatory mRNA in tracheal epithelial cultures infected with RV16, RT-PCR; type: cell-based; settings: 50 microM HCQ, RV16 infection
Description: Differentiated cultures of human tracheal cells grown at an air liquid interface were pre-incubated for 12h with 50 microM HCQ prior to 12 h infection with human rhinovirus type 16 (HRV-16). Twelve hours after removal of virus, levels of mRNA for RANTES, ICAM-1, IL-1beta, TNF-alpha and IL-6 were quantified using multiplex two-step (TaqMan) RT-PCR. The results are depicted in FIGS. 6-10.
(§1) FIG. 6 graphically depicts the effects of HCQ on the release of RANTES (regulated on activation normal T-cell expressed and secreted) in cultured human tracheal epithelial cells. In the figure, RV16-p3 refers to the rhinovirus strain. Human tracheal epithelial cells were cultured for 14 days in serum-free growth media. On day 14, the cultures were divided into four groups. Two groups were pre-treated for 6 hours with HCQ (final concentration 50 microM) in media administered via the basolateral side. Then RV-16-p3 at a tissue culture infectious dose (TCID50) of 10^6/ml was added to one of groups receiving HCQ and one of thgroups not pretreated with HCQ. Phosphate buffered saline (PBS) was added to the other two groups, creating four conditions: media alone (control), HCQ alone, RV-16-p3 alone and RV-16-p3+HCQ. After six hours, the experimental suspensions were removed and the cells were washed three times with PBS. Cells were allowed to recover for 24h and then the mucosal surfaces of the culture inserts were flushed with 500 microL of PBS and the flushings were retained.
The filters containing the cell sheets were cut in half and placed in RLT buffer (Rneasy lysis buffer) or fixed in 10% buffered formalin prior to their preparation for fluorescence in situ hybridization (FISH) and gene expression analysis as described in detail elsewhere (Lopez-Souza N, et al., Resistance of differentiated human airway epithelium to infection by rhinovirus, Am J Physiol Lung Cell Mol Physiol, 2004;286:L373-81). Levels of mRNA for RANTES were determined in cell lysates using a two-step method of gene transcript profiling in which multiplex RT-PCR is combined with individual gene quantification via real-time PCR on generated cDNA product.
as §1, with “FIG. 7” for “FIG. 6”, “the upregulation” for “the release”, “of for intercellular adhision molecule 1 (ICAM-1)” for “of RANTES (regulated on activation normal T-cell expressed and secreted)”, “strain. ICAM refers to intracellular adhesion molecule 1.” for “strain.”, “of the groups” for “of thgroups”
FIG. 8 graphically depicts the effects of HCQ on the release of IL-1beta and TNF-alpha in cultured human tracheal epithelial cells. In the figure, RV16-p3 refers to the rhinovirus strain. IL-1 beta refers to Interleukin-1 beta. […]

Human eosinophils [6] = experiment: IL-5 stimulated eosinophil survival by flow cytometry; type: cell-based; settings: 100 pg/ml IL-5, four days, compared with dexamethasone
Description: (§2) Human eosinophils were isolated from atopic and non-atopic donors using density centrifugation and CD16-magnetic bead negative selection. Eosinophil purity was always>93%.
Flow cytometry was performed on a Becton Dickenson FACScan. Data was analyzed using CellQuest software. For cell surface marker determination, specific antibodies directly conjugated with the fluorescent indicator, phycoerythrin (PE) were utilized.
The general procedure described hereinabove was followed. Eosinophils were incubated with 100 pg/ml IL-5 with or without dexamethasone or HCQ. After four days, eosinophil viability was measured by flow cytometry. The results are depicted in FIG. 3.

Human eosinophils [7] = experiment: Eosinophil extracellular superoxide production (cytochrome c); type: cell-based; settings: 1 hr pretreatment at 37° C.; IL-5 or PAF stimulus
Description: as §2
Statistical analyses were performed using the Student's paired t-test; significance defined as p value<0.05 compared to “nil” or 0.0 microM HCQ.
The general procedure described hereinabove was followed. Eosinophils were pretreated with HCQ for 1 hr at 37° C. and then stimulated as described in FIG. 1 in 96-well plates (50,000 cells/well). Extracellular superoxide was detected using cytochrome c and a 96-well plate reader.

[8] = Single-dose intravenous HCQ pharmacokinetics in dogs; type: in vivo, Beagle dogs; settings: for AUC(0-inf) / Cmax / AUC(0-t) / half-life / Tmax / Vd / clearance: both sexes, beagle, dog, whole blood; for AUC(0-inf) / Cmax / AUC(0-t) / Tmax / Vd / clearance: single day; for AUC(0-t): read-out: AUC0-23; for half-life: 2-compartment model, read-out: Apparent terminal t1/2 (converted)
Description: Two Beagle dogs per dose group (one M: one F) received hydroxychloroquine sulfate, USP as an intravenous bolus infusion over 30 minutes.
Following the single injection, blood samples were drawn at one, two, three, five, six, seven, eight, 12, 18, 24, 36, 120, 192, 264, 360, 528, 696, 864 and 1,032 hours.

[9] = lupus erythematosus and rheumatoid arthritis; cited from earlier work
Human eosinophils [10] = experiment: IL-5 stimulated eosinophil degranulation, EDN release by DARIA; type: cell-based
Source text: FIG. 2 graphically depicts the effect of HCQ on IL-5 stimulated eosinophil degranulation as measured by release of eosinophil-derived neurotoxin. In this figure, EDN refers to eosinophil-derived neurotoxin.
as §2
The general procedure described hereinabove and Example 1 was followed. Supernatants from superoxide assay samples were analyzed for EDN by Double-Antibody Radioimmunoassay (DARIA). The results are depicted in FIG. 2.

[11] = Single-dose intravenous HCQ pharmacokinetics in rats; type: in vivo; settings: for Tmax / Vd / clearance / half-life / AUC(0-inf) / Cmax / AUC(0-t): both sexes, rat, whole blood; for Tmax / Vd / clearance / AUC(0-inf) / Cmax / AUC(0-t): single day; for half-life: 2-compartment model, read-out: Apparent Terminal t1/2 (converted); for AUC(0-t): read-out: AUC0-23
Description: Twelve rats per dose group (six M: six F) received hydroxychloroquine sulfate, USP as an intravenous bolus injected over 30 minutes.
Following the single injection, blood samples were drawn from rat pairs at one, three, six, 12, 24, 36, 48, 192, 360, and 1,032 hours.

[12] = rats, intravenous, 10 mg/kg/day

SMILES: CCN(CCO)CCCC(C)Nc1ccnc2cc(Cl)ccc12 (centres unmarked) [HCQ, hydroxychloroquine]
- therapeutic benefit in IBD [1]: in neither was a consistent therapeutic benefit evident
- neutrophil and macrophage superoxide release, macrophage release of TNF-alpha, IL-6, Interferon-gamma and T cell activation [2]: inhibited
- IP-10: hrs of preincubation 24 ([3]; HRV-16 + 50 microM HCQ, 24): 31 pg/mL
- IP-10: hrs of preincubation 48 ([3]; HRV-16 + 50 microM HCQ, 48): 112 pg/mL
- RANTES: hrs of preincubation 48 ([3]; HRV-16 + HCQ, 48): 509 pg/mL
- IP-10: 6 hrs preincubation (BEAS-2B epithelial cells; HRV-16 + 0.01 mM HCQ): 3084 pg/mL
- IP-10: 24 hrs preincubation (BEAS-2B epithelial cells; HRV-16 + 0.01 mM HCQ): 2506 pg/mL
- RANTES: 6 hrs preincubation (BEAS-2B epithelial cells; HRV-16 + 0.01 mM HCQ): 3326 pg/mL
- IP-10: 6 hrs preincubation (BEAS-2B epithelial cells; HRV-16 + 0.1 mM HCQ): 2914 pg/mL
- IP-10: 24 hrs preincubation (BEAS-2B epithelial cells; HRV-16 + 0.1 mM HCQ): 1814 pg/mL
- RANTES: 6 hrs preincubation (BEAS-2B epithelial cells; HRV-16 + 0.1 mM HCQ): 3128 pg/mL
- IP-10: 6 hrs preincubation (BEAS-2B epithelial cells; HRV-16 + 1 mM HCQ): 3045 pg/mL
- IP-10: 24 hrs preincubation (BEAS-2B epithelial cells; HRV-16 + 1 mM HCQ): 2098 pg/mL
- RANTES: 6 hrs preincubation (BEAS-2B epithelial cells; HRV-16 + 1 mM HCQ): 1994 pg/mL
- IP-10: 6 hrs preincubation (BEAS-2B epithelial cells; HRV-16 + 50 mM HCQ): 31 pg/mL
- IP-10: 24 hrs preincubation (BEAS-2B epithelial cells; HRV-16 + 50 mM HCQ): 31 pg/mL
- RANTES: 6 hrs preincubation (BEAS-2B epithelial cells; HRV-16 + 50 mM HCQ): 0 pg/mL
- incubation time to effect on leukocytes (leukocytes): less than 1 hour
- treatment time before therapeutic effect begins [4]: 24-26 weeks
- release of IL-1beta [5]: rapidly block
- release of IL-6 [5]: rapidly block
- release of IL-8 [5]: rapidly block
- release of TNF-alpha [5]: rapidly block
- up-regulation of ICAM-1 [5]: rapidly block
- eosinophil survival (Human eosinophils [6]): actively shortens eosinophil survival, to a much greater extent than a comparative dose of dexamethasone
- HCQ concentration at which IL-5 or PAF induced eosinophil superoxide is inhibited (Human eosinophils [7]): at least 0.5 mM and ≥ 200 mcg/ml
- peak whole blood concentrations [8]: less than 3 mcg/ml
- AUC(0-inf) ([8]; 5 mg/kg/day): 24.2 µg·h/mL
- Cmax ([8]; 5 mg/kg/day): 1.2 µg/mL
- AUC(0-t) ([8]; 5 mg/kg/day): 8.16 µg·h/mL
- AUC(0-inf) ([8]; 10 mg/kg/day): 82.1 µg·h/mL
- Cmax ([8]; 10 mg/kg/day): 2.7 µg/mL
- AUC(0-t) ([8]; 10 mg/kg/day): 30.9 µg·h/mL
- half-life ([8]; 5 mg/kg/day): 20.8 h
- Tmax ([8]; 5 mg/kg/day): 0.5 h
- Vd ([8]; 5 mg/kg/day): 9.1 L/kg
- clearance ([8]; 5 mg/kg/day): 0.3 L/h/kg
- half-life ([8]; 10 mg/kg/day): 35 h
- Tmax ([8]; 10 mg/kg/day): 0.5 h
- Vd ([8]; 10 mg/kg/day): 6.1 L/kg
- clearance ([8]; 10 mg/kg/day): 0.1 L/h/kg
- onset of action [9]: 3-4 months
- HCQ concentration at which eosinophil degranulation is inhibited (Human eosinophils [10]): > 100 µM
- Tmax ([11]; rats, intravenous, 5 mg/kg/day): 0.5 h
- Vd ([11]; rats, intravenous, 5 mg/kg/day): 11.1 L/kg
- clearance ([11]; rats, intravenous, 5 mg/kg/day): 1.2 L/h/kg
- half-life ([11]; rats, intravenous, 5 mg/kg/day): 7.5 h
- Tmax [11, 12]: 0.5 h
- Vd [11, 12]: 11.2 L/kg
- clearance [11, 12]: 1.3 L/h/kg
- half-life [11, 12]: 7.4 h
- AUC(0-inf) ([11]; rats, intravenous, 5 mg/kg/day): 6.56 µg·h/mL
- Cmax ([11]; rats, intravenous, 5 mg/kg/day): 1.02 µg/mL
- AUC(0-t) ([11]; rats, intravenous, 5 mg/kg/day): 4.05 µg·h/mL
- AUC(0-inf) [11, 12]: 11 µg·h/mL
- Cmax [11, 12]: 1.74 µg/mL
- AUC(0-t) [11, 12]: 7.22 µg·h/mL
- peak concentrations as fraction of those required ([11]; rats and dogs, intravenous, versus concentrations needed for in vitro effects): 1/100
- peak serum concentrations ([11]; rats, intravenous 10 mg/kg): 2 µg/mL
